According to article PMC3242765, “Inhibitors of Alphavirus Entry and Replication Identified with a Stable Chikungunya Replicon Cell Line and Virus-Based Assays” (PLoS ONE, 2011):
Where a name gives a salt, the structure may show the parent alone.

Columns and labels:
[1] = system: CHIKV replicon; test: microbe, parasite or virus in culture; type: cell-based, Chikungunya virus (CHIKV)
[2] = system: SFV-Rluc

Row | Structure (SMILES) | CHIKV replicon % left [1] | SFV replication % left (surviving fraction, remaining percentage of SFV replication) [2]
1 | COc1ccc(CN(CCN(C)C)c2ccccn2)cc1 [Pyrilamine maleate] | 85.4% | 73.7%
2 | CN1C(=O)C(O)N=C(c2ccccc2)c2cc(Cl)ccc21 (centres unmarked) [Temazepam] | 79.5% | 91.5%
3 | CN(C)CC[C@@H](c1ccc(Cl)cc1)c1ccccn1 [Dexchlorpheniramine maleate] | 51.7% | 68.1%
4 | CC(CCc1ccccc1)NCC(O)c1ccc(O)c(C(N)=O)c1 (centres unmarked) [Labetalol hydrochloride] | 100.1% | 72.5%
5 | O=C(O)c1ccccc1C(=O)O [Phthalic acid] | 96.6% | 143.7%
6 | O=C1c2c(O)cc(O)cc2O[C@H](c2ccc(O)c(O)c2)[C@H]1O [(+)-Taxifolin] | 105.4% | 93.7%
7 | COc1ccc(-c2cc(=O)c3c(O)cc(O)cc3o2)cc1 [Acacetin] | 103.3% | 78.1%
8 | CN1C(=O)NC(=O)C(C)(C2=CCCCC2)C1=O (centres unmarked) [Hexobarbital] | 98.2% | 121.3%
9 | COc1ccc(OC)c(C(O)C(C)N)c1 (centres unmarked) [Methoxamine hydrochloride] | 48.2% | 98.4%
10 | O=C(O[C@@H]1Cc2c(O)cc(O)cc2O[C@@H]1c1cc(O)c(O)c(O)c1)c1cc(O)c(O)c(O)c1 [(-)-Epigallocatechin gallate] | 90.4% | 155.3%
11 | CC(C)NCC(O)c1ccc(O)c(O)c1.Cl (centres unmarked) | 99.3% | 112.5%
12 | O=c1cc(-c2ccc(O)c(O)c2)oc2cc(O[C@@H]3O[C@H](CO)[C@@H](O)[C@H](O)[C@H]3O)cc(O)c12 [Luteolin-7-glucoside] | 54.4% | 17.8%
13 | COc1c2occc2cc2ccc(=O)oc12 [Xanthotoxin] | 95.4% | 86.7%
14 | CC[C@H]1CN2CCc3cc(OC)c(OC)cc3[C@@H]2C[C@@H]1C[C@H]1NCCc2cc(OC)c(OC)cc21 [Emetine dihydrochloride] | 80.9% | 63.1%
15 | Cc1cc2nc3c(=O)[nH]c(=O)nc-3n(C[C@H](O)[C@H](O)[C@H](O)CO)c2cc1C [Riboflavin] | 63.1% | 43.1%
16 | Nc1ccc(S(=O)(=O)Nc2nccs2)cc1 [Sulfathiazole] | 78.5% | 138.1%
17 | Nc1nc(=O)c2nc(CNc3ccc(C(=O)N[C@@H](CCC(=O)O)C(=O)O)cc3)cnc2[nH]1 [Folic acid] | 78.1% | 100.0%
18 | C#CCN(C)[C@H](C)Cc1ccccc1 [Selegiline hydrochloride] | 43.1% | 57.0%
19 | O=c1c(-c2ccc(O)cc2)coc2cc(O)cc(O)c12 [Genistein] | 62.1% | 45.6%
20 | O=C1O[C@H]([C@@H](O)CO)C(O)=C1O [L-ascorbic acid] | 106.1% | 81.4%
21 | NC(=O)c1cccnc1 [Nicotinamide] | 99.1% | 116.9%
22 | CC(C)(O)C(Cl)(Cl)Cl [Chlorobutanol] | 95.1% | 84.2%
